In patent publication US20070172957A1, “Methods of identifying anti-inflammatory macrolides” (TAISHO PHARMACEUTICAL CO., LTD., priority 2004, published 2007):

Test system: genes predictive for the anti-inflammatory macrolide effect
Experiment: Genes statistically predictive of Clari response: differentially expressed with Clari but not the inactive macrolides MAA or Josa (Appendix E)
Assay type: cell-based
Source text: In the case of the above-mentioned (i) related to arachidonic acid biosynthesis, specifically, methods of the embodiment involve assaying whether a test macrolide alters biosynthesis of arachidonic acid, alters the expression or activities of enzymes involved in the biosynthesis or activation of arachidonic acid (e.g., arachidonic acid CoA synthetase, delta-6 desaturase, fatty acid elongase, and delta-5 desaturase, AA-related genes in Tables 2 and 3), or alters the expression of genes identified as predictive for the anti-inflammatory macrolide effect (Appendix E). Assays in which arachidonic acid or gene expression or enzymatic activity is detected can be carried out after contacting a cell with a test macrolide. Any cell line that secretes prostaglandin or produces arachidonic acid can be used. Epithelial and macrophages lines (e.g., A549 or THP-1) are suitable for this purpose; other cell lines can be identified by carrying out assays such as those described in the specific Examples, below. Alternatively, screening assays can be carried out after adding a test macrolide to an in vitro cell system (e.g., a cellular extract or liver microsome preparation) or an in vitro enzyme assay system.

## CO[C@@H]1[C@@H](O[C@@H]2O[C@H](C)[C@@H](O[C@H]3C[C@@](C)(O)[C@@H](OC(=O)CC(C)C)[C@H](C)O3)[C@H](N(C)C)[C@H]2O)[C@@H](CC=O)C[C@@H](C)[C@@H](O)/C=C/C=C/C[C@@H](C)OC(=O)C[C@H]1OC(C)=O [josamycin]
SpotID 47949, MAA and Josa vs. Clari
  group mean, gene BCKDK: 1.07
SpotID 47950, MAA and Josa vs. Clari
  group mean, gene DNASE1L1: 0.96
SpotID 47950, pooled group mean
  mean group, DNASE1L1: 0.96
SpotID 47951, MAA and Josa vs. Clari
  group mean, gene COX15: 1.05
SpotID 47973, pooled group mean
  mean group, USF2: 0.96
SpotID 47987, MAA and Josa vs. Clari
  group mean, gene THBS1: 1.02
SpotID 47987, pooled group mean
  mean group, THBS1: 1.02
SpotID 47988, pooled group mean
  mean group, RPN2: 0.93
SpotID 47995, MAA and Josa vs. Clari
  group mean, gene PTGER1: 1.00
SpotID 48000, MAA and Josa vs. Clari
  group mean, gene CTSH: 0.93
SpotID 48004, pooled group mean
  mean group, CUTL1: 1.22
SpotID 48006, MAA and Josa vs. Clari
  group mean, gene BCL2L2: 0.86
SpotID 48026, pooled group mean
  mean group, SRF: 0.94
SpotID 48121, MAA and Josa vs. Clari
  group mean, gene SCN1B: 0.90
SpotID 48137, pooled group mean
  mean group, FRDA: 1.03
SpotID 48149, MAA and Josa vs. Clari
  group mean, gene SFRS7: 0.98
SpotID 48149, pooled group mean
  mean group, SFRS7: 0.98
SpotID 48160, MAA and Josa vs. Clari
  group mean, gene ZAP3: 1.08
SpotID 48160, pooled group mean
  mean group, ZAP3: 1.08
SpotID 48182, MAA and Josa vs. Clari
  group mean, gene SNAPC1: 1.00
SpotID 48192, MAA and Josa vs. Clari
  group mean, gene OPA1: 1.02
SpotID 48214, MAA and Josa vs. Clari
  group mean, gene BAT8: 1.02
SpotID 48233, MAA and Josa vs. Clari
  group mean, gene MAPK12: 0.88
SpotID 48233, pooled group mean
  mean group, MAPK12: 0.88
SpotID 48235, MAA and Josa vs. Clari
  group mean, gene DAXX: 1.02
SpotID 48266, MAA and Josa vs. Clari
  group mean, gene GRB2: 0.93
SpotID 48266, pooled group mean
  mean group, GRB2: 0.93
SpotID 48280, MAA and Josa vs. Clari
  group mean, gene ARHC: 0.90
SpotID 48301, MAA and Josa vs. Clari
  group mean, gene GCN5L1: 0.93
SpotID 48301, pooled group mean
  mean group, GCN5L1: 0.93
SpotID 48328, MAA and Josa vs. Clari
  group mean, gene FN1: 1.00
SpotID 48333, MAA and Josa vs. Clari
  group mean, gene DNMT1: 0.97
SpotID 48345, pooled group mean
  mean group, CCT3: 0.97
SpotID 48348, MAA and Josa vs. Clari
  group mean, gene FN1: 1.00
SpotID 48363, MAA and Josa vs. Clari
  group mean, gene CNOT2: 1.03
SpotID 48365, MAA and Josa vs. Clari
  group mean, gene MAPK9: 1.04
SpotID 48365, pooled group mean
  mean group, MAPK9: 1.04
SpotID 48396, MAA and Josa vs. Clari
  group mean, gene CNOT2: 1.04
SpotID 48397, MAA and Josa vs. Clari
  group mean, gene HIF1A: 1.09
SpotID 48411, MAA and Josa vs. Clari
  group mean, gene MGEA5: 0.97
SpotID 48411, pooled group mean
  mean group, MGEA5: 0.97
SpotID 48415, MAA and Josa vs. Clari
  group mean, gene SERPINB1: 1.02
SpotID 48415, pooled group mean
  mean group, SERPINB1: 1.02
SpotID 48451, MAA and Josa vs. Clari
  group mean, gene M6PR: 0.97
SpotID 48456, MAA and Josa vs. Clari
  group mean, gene DDC: 1.12
SpotID 48456, pooled group mean
  mean group, DDC: 1.12
SpotID 48461, pooled group mean
  mean group, BARD1: 0.98
SpotID 48470, MAA and Josa vs. Clari
  group mean, gene MCM5: 0.97
SpotID 48471, MAA and Josa vs. Clari
  group mean, gene RBM3: 1.06
SpotID 48486 (gene symbol not given), pooled group mean
  mean group, SpotID 48486: 1.21
SpotID 48500, MAA and Josa vs. Clari
  group mean, gene RPL13A: 1.05
SpotID 48500, pooled group mean
  mean group, RPL13A: 1.05
SpotID 48508, MAA and Josa vs. Clari
  group mean, gene USP24: 1.03
SpotID 48521, MAA and Josa vs. Clari
  group mean, gene ARAF1: 1.12
SpotID 48521, pooled group mean
  mean group, ARAF1: 1.12
SpotID 48530, MAA and Josa vs. Clari
  group mean, gene APLP2: 0.95
SpotID 48530, pooled group mean
  mean group, APLP2: 0.95
SpotID 48557, pooled group mean
  mean group, NFE2L1: 0.97
SpotID 48620, pooled group mean
  mean group, XBP1: 0.98
SpotID 48643, MAA and Josa vs. Clari
  group mean, gene DIP2: 1.00
SpotID 48644, MAA and Josa vs. Clari
  group mean, gene KIAA0323: 1.01
SpotID 48646, MAA and Josa vs. Clari
  group mean, gene SDCBP: 0.97
SpotID 48646, pooled group mean
  mean group, SDCBP: 0.97
SpotID 48654, pooled group mean
  mean group, FECH: 1.05
SpotID 48672, MAA and Josa vs. Clari
  group mean, gene CHK: 0.87
SpotID 48693, MAA and Josa vs. Clari
  group mean, gene HSPBP1: 1.04
SpotID 48693, pooled group mean
  mean group, HSPBP1: 1.04
SpotID 48705, MAA and Josa vs. Clari
  group mean, gene SIGIRR: 0.97
SpotID 48707, MAA and Josa vs. Clari
  group mean, gene P4HA1: 0.97
SpotID 48707, pooled group mean
  mean group, P4HA1: 0.97
SpotID 48713, MAA and Josa vs. Clari
  group mean, gene MKNK2: 0.96
SpotID 48717, pooled group mean
  mean group, PPP3CB: 1.09
SpotID 48725, MAA and Josa vs. Clari
  group mean, gene IKKE: 0.84
SpotID 48725, pooled group mean
  mean group, IKKE: 0.84
SpotID 48732, pooled group mean
  mean group, RALA: 0.98
SpotID 48747, pooled group mean
  mean group, MAFB: 1.14
SpotID 48804, MAA and Josa vs. Clari
  group mean, gene KIAA0217: 1.01
SpotID 48804, pooled group mean
  mean group, KIAA0217: 1.01
